Data taken from ChEMBL document CHEMBL5678809, “Preclinical characterization of GLPG0634, a selective inhibitor of JAK1, for the treatment of inflammatory diseases” (J Immunol, 2013).
Activity calls are given as the source filed them. No cut-off for these calls is given here.

How the values were obtained:
[1] = molecular target: Tyrosine-protein kinase ABL1 (Homo sapiens, UniProt P00519); test: Inhibition of ABL (unknown origin)
[2] = molecular target: Aurora kinase B (Homo sapiens, UniProt Q96GD4); test: Inhibition of AURORA-B (unknown origin)
[3] = molecular target: Cyclin-dependent kinase 2 (Homo sapiens, UniProt P24941); test: Inhibition of CDK2 (unknown origin)
[4] = molecular target: Serine/threonine-protein kinase Chk1 (Homo sapiens) (UniProt O14757); test: Inhibition of CHK1 (unknown origin) at 1 uM relative to control
[5] = molecular target: Death-associated protein kinase 1 (Homo sapiens, UniProt P53355); test: Inhibition of DAPK1 (unknown origin)
[6] = molecular target: Serine/threonine-protein kinase 17A (Homo sapiens) (UniProt Q9UEE5); test: Inhibition of DRAK1 (unknown origin) at 1 uM relative to control
[7] = molecular target: Focal adhesion kinase 1 (Homo sapiens) (UniProt Q05397); test: Inhibition of FAK (unknown origin) at 1 uM relative to control
[8] = molecular target: Tyrosine-protein kinase Fyn (Homo sapiens) (UniProt P06241); test: Inhibition of Fyn (unknown origin) at 1 uM relative to control
[9] = molecular target: G protein-coupled receptor kinase 5 (Homo sapiens) (UniProt P34947); test: Inhibition of GRK5 (unknown origin) at 1 uM relative to control
Chain of G protein-coupled receptor kinase 5 (Homo sapiens) (P34947 whole entry, looked up): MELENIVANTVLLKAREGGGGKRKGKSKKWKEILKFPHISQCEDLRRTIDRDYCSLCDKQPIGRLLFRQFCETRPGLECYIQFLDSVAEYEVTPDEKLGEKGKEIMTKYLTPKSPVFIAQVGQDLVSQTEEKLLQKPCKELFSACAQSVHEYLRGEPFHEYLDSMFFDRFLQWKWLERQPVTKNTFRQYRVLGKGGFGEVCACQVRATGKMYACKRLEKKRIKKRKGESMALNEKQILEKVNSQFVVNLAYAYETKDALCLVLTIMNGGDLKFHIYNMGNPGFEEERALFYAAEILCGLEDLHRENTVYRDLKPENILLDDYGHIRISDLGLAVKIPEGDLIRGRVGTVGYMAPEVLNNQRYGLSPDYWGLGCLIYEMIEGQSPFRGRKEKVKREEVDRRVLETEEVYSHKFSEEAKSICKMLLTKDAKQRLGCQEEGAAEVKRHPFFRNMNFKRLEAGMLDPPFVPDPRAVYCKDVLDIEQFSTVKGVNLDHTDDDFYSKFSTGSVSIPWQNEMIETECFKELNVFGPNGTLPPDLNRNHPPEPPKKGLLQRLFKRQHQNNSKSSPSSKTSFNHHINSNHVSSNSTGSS

[10] = molecular target: Insulin receptor (Homo sapiens) (UniProt P06213); test: Inhibition of IR (unknown origin) at 1 uM relative to control
Chain of Insulin receptor (Homo sapiens) (P06213 28-758 limits assumed): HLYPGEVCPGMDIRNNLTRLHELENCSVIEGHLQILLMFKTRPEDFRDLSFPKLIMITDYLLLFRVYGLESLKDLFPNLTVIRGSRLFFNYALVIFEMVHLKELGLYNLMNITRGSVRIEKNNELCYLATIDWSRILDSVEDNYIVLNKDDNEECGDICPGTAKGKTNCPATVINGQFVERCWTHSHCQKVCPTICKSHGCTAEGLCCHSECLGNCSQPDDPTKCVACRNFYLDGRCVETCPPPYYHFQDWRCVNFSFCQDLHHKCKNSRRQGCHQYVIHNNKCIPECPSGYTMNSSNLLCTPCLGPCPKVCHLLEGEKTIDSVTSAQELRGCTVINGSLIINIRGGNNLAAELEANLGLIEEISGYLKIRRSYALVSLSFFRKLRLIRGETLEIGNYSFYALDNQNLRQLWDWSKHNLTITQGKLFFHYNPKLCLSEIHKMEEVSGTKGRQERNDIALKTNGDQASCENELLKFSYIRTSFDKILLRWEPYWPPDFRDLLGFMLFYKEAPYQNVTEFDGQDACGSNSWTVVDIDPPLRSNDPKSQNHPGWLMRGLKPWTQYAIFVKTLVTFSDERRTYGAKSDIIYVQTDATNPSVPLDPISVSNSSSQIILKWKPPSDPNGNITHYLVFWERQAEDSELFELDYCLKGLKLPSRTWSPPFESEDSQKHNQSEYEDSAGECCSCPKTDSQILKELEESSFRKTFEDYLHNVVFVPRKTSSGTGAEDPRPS
Chain of Insulin receptor (Homo sapiens) (P06213 763-1382 limits assumed): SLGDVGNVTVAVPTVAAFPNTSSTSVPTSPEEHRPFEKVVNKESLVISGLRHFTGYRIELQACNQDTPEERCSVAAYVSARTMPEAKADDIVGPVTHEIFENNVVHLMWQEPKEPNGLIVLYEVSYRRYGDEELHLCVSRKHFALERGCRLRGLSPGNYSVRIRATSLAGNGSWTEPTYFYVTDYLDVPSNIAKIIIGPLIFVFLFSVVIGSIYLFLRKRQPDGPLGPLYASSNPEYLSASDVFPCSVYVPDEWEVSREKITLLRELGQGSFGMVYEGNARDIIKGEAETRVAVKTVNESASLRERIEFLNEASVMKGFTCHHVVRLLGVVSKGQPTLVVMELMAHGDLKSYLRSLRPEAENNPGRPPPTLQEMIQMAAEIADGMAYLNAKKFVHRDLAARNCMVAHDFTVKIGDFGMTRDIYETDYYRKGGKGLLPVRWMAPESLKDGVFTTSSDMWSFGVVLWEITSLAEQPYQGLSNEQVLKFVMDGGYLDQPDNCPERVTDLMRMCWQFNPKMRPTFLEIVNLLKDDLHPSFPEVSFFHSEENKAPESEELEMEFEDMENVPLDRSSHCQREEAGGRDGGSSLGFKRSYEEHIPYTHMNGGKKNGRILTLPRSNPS

[11] = molecular target: Interleukin-1 receptor-associated kinase 4 (Homo sapiens, UniProt Q9NWZ3); test: Inhibition of IRAK4 (unknown origin)
[12] = molecular target: Serine/threonine-protein kinase 10 (Homo sapiens) (UniProt O94804); test: Inhibition of LOK (unknown origin) at 1 uM relative to control
[13] = molecular target: Mitogen-activated protein kinase 14 (Homo sapiens, UniProt Q16539); test: Inhibition of MAPK14 (unknown origin)
[14] = molecular target: Tyrosine-protein kinase Mer (Homo sapiens, UniProt Q12866); test: Inhibition of Mer (unknown origin)
[15] = molecular target: Misshapen-like kinase 1 (Homo sapiens, UniProt Q8N4C8); test: Inhibition of MINK1 (unknown origin) at 1 uM relative to control
[16] = molecular target: Serine/threonine-protein kinase 3 (Homo sapiens) (UniProt Q13188); test: Inhibition of MST2 (unknown origin) at 1 uM relative to control
[17] = molecular target: FKBP12A/mTOR (Homo sapiens) (UniProt P62942+P42345); test: Inhibition of mTOR/FKBP12 (unknown origin) at 1 uM relative to control; type: protein-complex assay
[18] = molecular target: Serine/threonine-protein kinase PAK 4 (Homo sapiens) (UniProt O96013); test: Inhibition of PAK4 (unknown origin) at 1 uM relative to control
[19] = molecular target: Serine/threonine-protein kinase PAK 6 (Homo sapiens, UniProt Q9NQU5); test: Inhibition of PAK6 (unknown origin)
[20] = molecular target: Serine/threonine-protein kinase D1 (Homo sapiens) (UniProt Q15139); test: Inhibition of PKC-mu (unknown origin) at 1 uM relative to control
[21] = molecular target: Ribosomal protein S6 kinase alpha-3 (Homo sapiens) (UniProt P51812); test: Inhibition of Rsk2 (unknown origin) at 1 uM relative to control
[22] = molecular target: Serine/threonine-protein kinase Sgk1 (Homo sapiens) (UniProt O00141); test: Inhibition of SGK (unknown origin) at 1 uM relative to control
[23] = molecular target: Serine/threonine-protein kinase PLK2 (Homo sapiens) (UniProt Q9NYY3); test: Inhibition of Snk (unknown origin) at 1 uM relative to control
Chain of Serine/threonine-protein kinase PLK2 (Homo sapiens) (Q9NYY3 whole entry, looked up): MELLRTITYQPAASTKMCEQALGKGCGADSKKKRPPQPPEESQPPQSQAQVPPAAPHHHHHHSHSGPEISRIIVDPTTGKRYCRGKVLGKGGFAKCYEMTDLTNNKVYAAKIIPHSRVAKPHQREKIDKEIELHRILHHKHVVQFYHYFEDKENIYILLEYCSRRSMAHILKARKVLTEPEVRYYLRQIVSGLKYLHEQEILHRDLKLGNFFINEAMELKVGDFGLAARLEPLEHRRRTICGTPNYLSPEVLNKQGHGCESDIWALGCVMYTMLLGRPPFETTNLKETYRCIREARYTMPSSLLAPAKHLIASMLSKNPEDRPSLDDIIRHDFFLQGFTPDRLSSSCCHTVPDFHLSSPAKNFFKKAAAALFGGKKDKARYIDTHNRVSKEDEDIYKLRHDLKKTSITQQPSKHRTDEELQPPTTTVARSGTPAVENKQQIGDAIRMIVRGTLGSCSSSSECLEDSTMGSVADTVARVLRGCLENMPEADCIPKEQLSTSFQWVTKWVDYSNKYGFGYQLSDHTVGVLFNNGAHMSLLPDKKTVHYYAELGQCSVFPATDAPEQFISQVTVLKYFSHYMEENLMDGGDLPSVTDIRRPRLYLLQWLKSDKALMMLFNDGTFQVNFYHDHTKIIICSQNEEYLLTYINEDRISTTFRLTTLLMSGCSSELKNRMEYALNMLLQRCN

[24] = molecular target: Serine/threonine-protein kinase TBK1 (Homo sapiens, UniProt Q9UHD2); test: Inhibition of TBK1 (unknown origin)
Chain of Serine/threonine-protein kinase TBK1 (Q9UHD2 whole entry): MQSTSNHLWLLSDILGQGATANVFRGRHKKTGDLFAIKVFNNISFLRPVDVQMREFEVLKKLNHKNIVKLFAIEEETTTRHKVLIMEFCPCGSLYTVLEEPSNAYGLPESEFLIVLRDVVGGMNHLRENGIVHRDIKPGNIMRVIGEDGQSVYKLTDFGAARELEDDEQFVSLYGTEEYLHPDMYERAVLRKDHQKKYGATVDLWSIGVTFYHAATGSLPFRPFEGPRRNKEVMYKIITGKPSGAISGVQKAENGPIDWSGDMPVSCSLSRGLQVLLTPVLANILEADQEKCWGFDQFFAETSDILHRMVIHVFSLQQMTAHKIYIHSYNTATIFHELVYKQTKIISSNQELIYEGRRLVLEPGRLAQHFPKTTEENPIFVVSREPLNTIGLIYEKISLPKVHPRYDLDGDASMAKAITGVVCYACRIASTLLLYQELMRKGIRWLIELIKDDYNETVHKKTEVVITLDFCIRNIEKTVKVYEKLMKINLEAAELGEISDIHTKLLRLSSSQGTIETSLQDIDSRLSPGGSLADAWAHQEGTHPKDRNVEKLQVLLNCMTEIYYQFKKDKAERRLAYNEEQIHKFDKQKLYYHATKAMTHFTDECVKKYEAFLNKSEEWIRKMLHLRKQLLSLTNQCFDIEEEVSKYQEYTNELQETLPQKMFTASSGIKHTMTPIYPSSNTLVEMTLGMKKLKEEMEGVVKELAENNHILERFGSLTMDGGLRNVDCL

[25] = molecular target: Testis-specific serine/threonine-protein kinase 1 (Homo sapiens) (UniProt Q9BXA7); test: Inhibition of TSSK1 (unknown origin) at 1 uM relative to control
[26] = molecular target: Serine/threonine-protein kinase ULK3 (Homo sapiens) (UniProt Q6PHR2); test: Inhibition of ULK3 (unknown origin) at 1 uM relative to control
Chain of Serine/threonine-protein kinase ULK3 (Homo sapiens) (Q6PHR2 whole entry): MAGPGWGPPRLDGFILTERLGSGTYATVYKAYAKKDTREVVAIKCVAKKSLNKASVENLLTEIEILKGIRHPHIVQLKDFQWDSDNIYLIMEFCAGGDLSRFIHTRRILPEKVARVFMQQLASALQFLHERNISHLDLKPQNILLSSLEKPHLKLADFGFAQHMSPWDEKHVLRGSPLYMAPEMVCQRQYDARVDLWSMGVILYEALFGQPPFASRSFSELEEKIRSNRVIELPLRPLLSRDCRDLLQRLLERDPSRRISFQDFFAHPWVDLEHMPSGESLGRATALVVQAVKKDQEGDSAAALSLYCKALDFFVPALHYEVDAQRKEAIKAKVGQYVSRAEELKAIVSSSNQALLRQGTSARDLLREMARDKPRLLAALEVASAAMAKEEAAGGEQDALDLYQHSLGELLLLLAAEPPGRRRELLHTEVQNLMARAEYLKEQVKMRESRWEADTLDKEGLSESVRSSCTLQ

[27] = molecular target: Serine/threonine-protein kinase WNK3 (Homo sapiens) (UniProt Q9BYP7); test: Inhibition of WNK3 (unknown origin) at 1 uM relative to control
[28] = molecular target: Death-associated protein kinase 3 (Homo sapiens) (UniProt O43293); test: Inhibition of ZIPK (unknown origin) at 1 uM relative to control
[29] = molecular target: Tyrosine-protein kinase Mer (Homo sapiens) (UniProt Q12866); test: Inhibition of Mer (unknown origin) at 1 uM relative to control
[30] = molecular target: Vascular endothelial growth factor receptor 3 (Homo sapiens, UniProt P35916); test: Inhibition of Flt4 (unknown origin) at 1 uM relative to control
[31] = Cmax in CD-1 mouse at 5 mg/kg, po measured upto 24 hrs by LC-MS analysis; type: ADME, organism-based; conditions: in vivo
[32] = AUC (0 to 24 hrs) in CD-1 mouse at 5 mg/kg, po measured upto 24 hrs by LC-MS analysis; type: ADME, organism-based; conditions: in vivo
[33] = Volume of distribution at steady state in CD-1 mouse at 1 mg/kg, iv measured upto 8 hrs by LC-MS analysis; type: ADME, organism-based; conditions: in vivo, read-out: Vdss
[34] = test system: Rattus norvegicus; test: Antiarthritic activity against collagen-induced arthritis Dark Agouti rat model assessed as reduction in clinical score at 0.1 mg/kg, po measured after day 5; type: functional, organism-based; conditions: time 5.0 day
[35] = test system: Mus musculus; test: Antiarthritic activity against collagen-induced arthritis DBA/1J mouse model assessed as bone degradation by measuring lesion score in hind paw at 50 mg/kg, po administered twice daily for 14 days by histological analysis; type: functional, organism-based; conditions: time 14.0 day
[36] = test system: Mus musculus; test: Antiarthritic activity against collagen-induced arthritis DBA/1J mouse model assessed as reduction in infiltration of F4/80+ macrophage cells in paw at 50 mg/kg, po administered twice daily for 14 days by immunohistochemistry analysis; type: functional, organism-based; conditions: time 14.0 day
[37] = test system: Mus musculus; test: Antiarthritic activity against collagen-induced arthritis DBA/1J mouse model assessed as reduction in MMP3 expression at 50 mg/kg, po measured for 4 hrs; type: functional, organism-based
[38] = test system: Mus musculus; test: Antiarthritic activity against collagen-induced arthritis DBA/1J mouse model assessed as reduction in MMP13 expression at 50 mg/kg, po measured for 4 hrs; type: functional, organism-based
[39] = test system: Mus musculus; test: Antiarthritic activity against collagen-induced arthritis DBA/1J mouse model assessed as reduction in MX2 expression in paw at 50 mg/kg, po measured for 2 weeks by RT-PCR analysis; type: functional, organism-based
[40] = test system: Mus musculus; test: Antiarthritic activity against collagen-induced arthritis DBA/1J mouse model assessed as IL-1alpha level in serum at 50 mg/kg, po measured for 4 hrs by luminex analysis (reference value: 359 +/- 83.8 ng/ml); type: functional
[41] = test system: Mus musculus; test: Antiarthritic activity against collagen-induced arthritis DBA/1J mouse model assessed as LIF level in serum at 50 mg/kg, po measured for 4 hrs by luminex analysis (reference value: 696 +/- 108 ng/ml); type: functional

Chain of Tyrosine-protein kinase ABL1 (P00519 whole entry): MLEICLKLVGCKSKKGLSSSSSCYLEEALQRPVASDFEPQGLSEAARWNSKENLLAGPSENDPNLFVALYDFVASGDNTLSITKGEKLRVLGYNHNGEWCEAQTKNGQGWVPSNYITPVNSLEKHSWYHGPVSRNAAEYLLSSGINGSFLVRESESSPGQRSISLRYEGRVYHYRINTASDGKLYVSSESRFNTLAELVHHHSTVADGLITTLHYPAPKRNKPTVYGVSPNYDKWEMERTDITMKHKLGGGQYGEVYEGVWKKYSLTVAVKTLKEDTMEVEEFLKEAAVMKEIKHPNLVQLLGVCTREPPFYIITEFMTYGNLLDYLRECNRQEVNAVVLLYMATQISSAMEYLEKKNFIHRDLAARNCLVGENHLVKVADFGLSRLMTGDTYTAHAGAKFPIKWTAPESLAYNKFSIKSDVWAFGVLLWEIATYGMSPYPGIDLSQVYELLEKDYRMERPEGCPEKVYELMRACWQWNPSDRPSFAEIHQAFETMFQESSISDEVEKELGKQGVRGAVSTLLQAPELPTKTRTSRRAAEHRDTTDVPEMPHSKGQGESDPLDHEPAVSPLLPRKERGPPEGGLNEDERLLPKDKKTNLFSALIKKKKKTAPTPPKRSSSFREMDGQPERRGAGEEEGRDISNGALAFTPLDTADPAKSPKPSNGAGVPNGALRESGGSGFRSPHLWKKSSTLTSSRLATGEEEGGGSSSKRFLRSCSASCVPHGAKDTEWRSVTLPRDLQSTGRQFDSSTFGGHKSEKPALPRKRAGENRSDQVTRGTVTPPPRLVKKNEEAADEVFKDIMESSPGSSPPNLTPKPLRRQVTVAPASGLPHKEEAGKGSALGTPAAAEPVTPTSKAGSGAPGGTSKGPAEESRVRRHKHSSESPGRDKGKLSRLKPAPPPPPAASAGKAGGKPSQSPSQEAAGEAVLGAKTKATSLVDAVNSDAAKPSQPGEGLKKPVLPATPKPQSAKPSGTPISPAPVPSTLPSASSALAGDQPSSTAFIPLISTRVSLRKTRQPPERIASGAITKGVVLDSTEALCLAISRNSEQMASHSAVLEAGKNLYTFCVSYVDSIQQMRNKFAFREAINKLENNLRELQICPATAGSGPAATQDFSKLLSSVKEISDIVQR

O=C(Nc1nc2cccc(-c3ccc(CN4CCS(=O)(=O)CC4)cc3)n2n1)C1CC1 [FILGOTINIB]
IC50 [1]: 2.3 µM | IC50 [2]: > 10 µM | IC50 [3]: > 10 µM | inhibition [4]: 10% | IC50 [5]: > 10 µM | inhibition [6]: 26% | inhibition [7]: 23% | inhibition [8]: 0% | inhibition [9]: -10% | inhibition [10]: -1% | IC50 [11]: > 10 µM | inhibition [12]: -3% | IC50 [13]: > 10 µM | IC50 [14]: 1.27 µM | inhibition [15]: -2% | inhibition [16]: -10% | inhibition [17]: 3% | inhibition [18]: 0% | IC50 [19]: > 10 µM | inhibition [20]: -10% | inhibition [21]: 1% | inhibition [22]: 7% | inhibition [23]: 0% | IC50 [24]: 1.79 µM | inhibition [25]: 5% | inhibition [26]: 4% | inhibition [27]: -2% | inhibition [28]: 3% | inhibition [29]: 44% | inhibition [30]: 77% | Cmax [31]: 920 ng/mL | AUC [32]: 1890 ng·h/mL | Vd [33]: 6 L/kg | Activity [34]: Active | Activity [35]: Active | Activity [36]: Active | Activity [37]: Active | Activity [38]: Active | Activity [39]: Active | Activity [40]: 123 ng/mL | Activity [41]: 743.8 ng/mL
